Structures are written as SMILES.

For experiment [1], the target named is T1, CCK1R (Homo sapiens, UniProt P32238).
T1 sequence (P32238 1-428): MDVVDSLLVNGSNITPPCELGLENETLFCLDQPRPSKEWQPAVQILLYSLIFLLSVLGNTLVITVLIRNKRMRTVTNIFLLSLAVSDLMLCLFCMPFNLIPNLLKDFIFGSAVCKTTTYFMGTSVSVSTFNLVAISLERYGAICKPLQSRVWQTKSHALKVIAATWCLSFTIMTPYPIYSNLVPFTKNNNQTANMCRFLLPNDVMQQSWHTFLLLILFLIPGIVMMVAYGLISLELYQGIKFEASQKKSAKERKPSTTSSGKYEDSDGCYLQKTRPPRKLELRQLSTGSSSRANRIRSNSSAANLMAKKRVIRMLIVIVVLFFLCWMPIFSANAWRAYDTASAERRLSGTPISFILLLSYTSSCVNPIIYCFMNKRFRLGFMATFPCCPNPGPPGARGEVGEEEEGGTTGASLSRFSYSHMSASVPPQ
Description: IP-One accumulation TR-FRET assay, PAM format, HEK-293 CCK1R cells. The following applies: for Emax: HEK293; for EC50: PAM format with EC20 CCK. The arrangement: expressed in transfected cells; host or cells: HEK-293. It counts as cell-based. A digest of the protocol:
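HEK-293 cells overexpressing CCK1R were plated overnight, then given compounds (top 50 µM, 16-point 2-fold) for 30 min at 37 °C. CCK stimulator with 50 mM LiCl (PAM format) or DMSO (agonist format) followed for 1 h. IP-One was read by TR-FRET; activity score = CCK-normalized Emax × pEC50.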
(In general: In TR-FRET formats the signal depends on donor and acceptor labels being close together.)

Experiment [2] concerns the target T1, CCK1R. Description: CCK1R cAMP accumulation assay, PAM format, HEK-293 CCK1R cells. It counts as cell-based. The following applies: for EC50: EC20 concentration of CCK; for Emax: HEK293, EC20 concentration of CCK. The arrangement: expressed in transfected cells; host or cells: HEK-293. Here is the method:
Possible off-target biological effects. […] Here, we tested them at the vasopressin-2 receptor (AVP2R), representing a class A GPCR structurally related to CCK1R, which is coupled to Gs. The activity at AVP2R was tested using AVP2R-overexpressing CHO-K1 (PAM format) or HEK-293 (agonist format) cells, stimulating the cells with vasopressin. Original hits were tested in both agonist and PAM formats. Since all recognized compound responses were present in both formats, we continued to screen analogs in only the PAM format (also able to capture agonist effects) in CHO-K1 AVP2R cells for potential enhanced sensitivity. The dose–response data sets for original hits were combined, as the PAM and agonist effects were indistinguishable. In brief, arginine vasopressin (AVP) orthosteric stimulator dilutions and ligand and compound dose–response titrations in DMSO were transferred onto a 1536-well plate (Corning #3725) using an Echo liquid handler (Labcyte). Thawed cryopreserved cell stocks were diluted in stimulation buffer consisting of HBSS (Hank’s Balanced Salt Solution with Ca^2+ and Mg^2+, Gibco #24020117), 5 mM HEPES (hydroxyethyl piperazineethanesulfonic acid), 0.5 mM IBMX (3-isobutyl-1-methylxanthine, Sigma-Aldrich), and 0.075% BSA (7.5% DTPA-purified bovine serum albumin, PerkinElmer). The resulting cell suspension was added to the microplate and incubated with test compounds at room temperature for 30 min. Then, the detection reagents from the Cisbio cAMP Gs Dynamic HTRF detection kit were added. The plate was kept at room temperature for 30 min and read on a PHERAstar FSX microplate reader. Dose–response curves were performed as 16-point 2-fold dilutions in duplicate in at least two independent experiments.
For CCK1R-induced Gs signaling studies, we performed cAMP accumulation assays as described above and as previously reported, utilizing the HEK-293 cells overexpressing CCK1Rs and the EC20 concentration of CCK for screening in PAM format.

The mark [3] stands for this setting: HEK-293 CCK1R cells, PAM format, relative to CCK control, average ± SD.
The mark [4] stands for this setting: HEK-293 CCK1R cells, PAM format.
The mark [5] stands for this setting: HEK-293 CCK1R cells, average ± SD.

For `CCN(CC)CCNc1ncnc2c1sc1nc(N3CCOCC3)c3c(c12)CCCC3` [CMP-1], the “Log(Rmax/R50)” value at CCK1R [1] (CCK1R IP-One PAM assay) came out at 4.7. Also, the Emax at CCK1R [1] (setting [3]) came to 60%; at CCK1R [2], 48 ± 31%. For the same molecule, the “CCK1R PAM (IP-One) Score (activity score = normalized Emax × pEC50)” value on CCK1R [1] (setting [4]) was 2.94; on CCK1R [1] (HEK-293 CCK1R cells, PAM format, listed as hit 1), 2.9. Further, the EC50 on CCK1R [1] (setting [5]) turned out to be 12.8 ± 4.6 µM; on CCK1R [2] it was 14.7 ± 7.3 µM. Also, the “CCK1R PAM (IP-One) Emax” value at CCK1R [1] (setting [3]) is on record as 63 ± 18%. Besides, at CCK1R [1] (from activity scores, CCK1R IP-One), the “AUC relative to AUC of endogenous agonist CCK” value is listed as “approximately 29%”.

`CCCc1nc2oc3c(NCCCN(C)C)ncnc3c2c2c1CCCC2` [CMP-28]: the results for the Emax at CCK1R [1] (setting [3]) and on CCK1R [2] were 35 ± 13% and 56 ± 26%, respectively. Also, the “CCK1R PAM (IP-One) Score (activity score = normalized Emax × pEC50)” value on CCK1R [1] (setting [4]) amounted to 1.66; on CCK1R [1] (HEK-293 CCK1R cells, PAM format, listed as hit 6) it was 1.7. Moreover, the results for the EC50 on CCK1R [1] (setting [5]) and on CCK1R [2] were 9.5 ± 3.5 µM and 15.6 ± 12.4 µM, respectively.

The Emax is the maximal effect, on the per cent scale that the assay sets. Broadly, the EC50 is the midpoint of the concentration-response curve. High values mean lower potency in that assay, low ones higher potency in that assay.

For the origin of these results see article PMC9964746, “Mechanism of Action and Structure–Activity Relationships of Tetracyclic Small Molecules Acting as Universal Positive Allosteric Modulators of the Cholecystokinin Receptor” (Membranes, 2023).
